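Cultured in 96-well plates, cells were exposed to test compound for 48 hours across five concentrations. GI50 marks 50% less growth.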 The source made the active and inactive calls. No stated cut-off is given here; in the data, active = GI50 up to about 1.1 µM and inactive = higher. Bounds are passed on as bounds.

This is an account of results in ChEMBL document CHEMBL1201862, “PubChem BioAssay data set” (2004).

Among the test systems are NCI-H522; NCI-H23; U-251; SK-OV-3; HL-60; HCT-15; SK-MEL-2; MDA-MB-435; MOLT-4; SF-539; T47D; TK-10; SK-MEL-28; OVCAR-4; MDA-N; HCC 2998; EKVX; SR; CCRF-CEM.
Common to all, as to test: NCI anticancer screen, dose series, 48 h

On to `N=C(CSSCC(=N)NCC12CC3CC(CC(C3)C1)C2)NCC12CC3CC(CC(C3)C1)C2`, for which the GI50 in the assay on NCI-H522 was 15.1 µM (inactive); with NCI-H23, 16 µM (inactive); with U-251, 14.3 µM (inactive); with SK-OV-3 it was 17 µM (inactive); with HL-60 it was 11 µM (inactive); with HCT-15 it was 12.2 µM. Besides, the GI50 was 22.3 µM (inactive) with SK-MEL-2; 13.8 µM (inactive) with MDA-MB-435; 3.1 µM (inactive) in the assay with MOLT-4; 17.7 µM (inactive) with SF-539; 17.9 µM (inactive) with T47D; 18.8 µM (inactive) in the assay with TK-10. The GI50 in the assay with SK-MEL-28 is 20.7 µM (inactive); in the assay on OVCAR-4 it was 14.4 µM (inactive).
Turning to `C[n+]1c(-c2ccc(/C=N\Nc3ccnc(N/N=C/c4ccc(-c5cn6ccsc6[n+]5C)cc4)n3)cc2)cn2ccsc21`, the GI50 is 2.96 µM (inactive) with MDA-N; > 100 µM (inactive) in the assay with NCI-H522; 11.5 µM (inactive) in the assay on NCI-H23; 32.6 µM (inactive) in the assay with U-251; > 100 µM (inactive) with SK-OV-3; 37.2 µM (inactive) in the assay on HCC 2998. For the same compound, the GI50 with HL-60 was 24.2 µM (inactive); with HCT-15, 64.4 µM; in the assay on EKVX, 24.8 µM (inactive); with MDA-MB-435 it was 2.24 µM (inactive); in the assay with SR it was 12.6 µM (inactive); with MOLT-4, 24.2 µM (inactive). The GI50 is 11.6 µM (inactive) in the assay with SF-539, 20.3 µM (inactive) in the assay with TK-10, 18.3 µM (inactive) in the assay with CCRF-CEM and 58.1 µM (inactive) in the assay on OVCAR-4.
On to `c1ccc(CCN2CCc3[nH]c4ccccc4c3C2)cc1`, for which the GI50 in the assay on NCI-H23 was 30.5 µM (inactive); in the assay with U-251 it was 18 µM (inactive); in the assay on SK-OV-3 it was 35.8 µM (inactive); in the assay with HCC 2998, 16.3 µM (inactive); in the assay with HL-60 it was 19 µM (inactive); in the assay on HCT-15 it was 23.4 µM. Further, the GI50 in the assay on EKVX was 33.4 µM (inactive); in the assay with MDA-MB-435 it was 17.4 µM (inactive); with SR, 27.9 µM (inactive); with MOLT-4, 26.5 µM (inactive); in the assay on SF-539 it was 22.8 µM (inactive); in the assay on T47D it was 20.1 µM (inactive). The GI50 in the assay with TK-10 was 24.3 µM (inactive); with SK-MEL-28 it was 20 µM (inactive); with CCRF-CEM, 32.6 µM (inactive); in the assay with OVCAR-4, 40.4 µM (inactive).
On to `O=C1c2ccccc2C(=O)c2sc(Nc3ccc(Cl)c(Cl)c3)nc21`, for which the GI50 is 2.07 µM (inactive) in the assay with NCI-H522; 2.31 µM (inactive) with NCI-H23; 2.43 µM (inactive) in the assay on U-251; 18 µM (inactive) in the assay with SK-OV-3; 15.3 µM (inactive) with HCC 2998; 0.256 µM (active) in the assay on HL-60. Also, the GI50 in the assay on HCT-15 was 2.26 µM; in the assay on EKVX, 14.3 µM (inactive); in the assay with SK-MEL-2, 8.26 µM (inactive); with SR, 2.52 µM (inactive); in the assay on MOLT-4, 1.02 µM (active); in the assay on SF-539, 4.38 µM (inactive). For the same compound, the GI50 with T47D was 4.03 µM (inactive); with TK-10, 11.1 µM (inactive); in the assay with SK-MEL-28, 7.35 µM (inactive); in the assay with CCRF-CEM, 1.85 µM (inactive); in the assay on OVCAR-4, 2.21 µM (inactive).
With `CC(C)C(=O)Nc1nc2[nH]cnc2c(=O)[nH]1`, the GI50 in the assay on NCI-H522, with NCI-H23, in the assay with U-251, in the assay on SK-OV-3, in the assay with HCC 2998 and in the assay with HL-60 was > 100 µM (inactive) throughout. Further, the GI50 was more than 100 µM in the assay on HCT-15; > 100 µM (inactive) with EKVX; > 100 µM (inactive) with SK-MEL-2; > 100 µM (inactive) with SR; > 100 µM (inactive) with MOLT-4; > 100 µM (inactive) with SF-539. The GI50 in the assay with TK-10, with SK-MEL-28, with CCRF-CEM and with OVCAR-4 was > 100 µM (inactive) throughout.
